“Also recorded” adds a separate entry of the source.
How the values were obtained:
T-type Ca^2+ channels = experiment: Whole-cell recording of T-type Ca2+ currents in differentiated ND7/23 cells; type: cell-based, mouse neuroblastoma and rat dorsal root ganglion cells; details: 50 μM, differentiated ND7/23 cells, vs non-treated cells
Description: (§1) ND7/23 cells are derived from the fusion of mouse neuroblastoma and rat dorsal root ganglion cells, which generates a more homogeneous sensory neuron-like cell population. ND7/23 cells were purchased from Sigma-Aldrich (RRID:CVCL_4259). Culture and differentiation of ND7/23 cells was performed as previously described. Briefly, ND7/23 cells were cultured in DMEM/F12 culture media (Millipore, Cat. #DF-041-B), supplemented with 0.5% fetal bovine serum (Invitrogen, Cat. #10437010), db-cAMP (1 mM, Sigma-Aldrich, Cat. #D0627), and nerve growth factor (NGF, 50 ng/mL, Sigma-Aldrich, Ca. #N2513). To remove any proliferating cells, cultures were treated with uridine (20 μM, Sigma-Aldrich, Cat. #U3003) and fluorodeoxyuridine (20 μM, Sigma-Aldrich, Cat. #F0503). Cells were maintained in differentiation media without uridine and fluorodeoxyuridin after induction of differentiation. ND7/23 cells were maintained in differentiation media for ≤6 days. HEK 293 cells that were stabled transfected with the human Cav3.2 and Cav3.3 channel subunits were a gift of Dr. E. Perez-Reyes (University of Virginia). Cav3.2 (or Cav3.3)-stabled transfected HEK 293 cells were culture in DMEM/F12 culture media, supplemented with 5% fetal bovine serum, 50 U/mL penicillin and 50 μg/mL streptomycin. ND7/23 and HEK 293 cells were grown in an incubator at 37° C. in the presence of 5% CO2/95% air humidified atmosphere. Cells passaged less than 20 times were used in this work. Cells were grown in poly-D-lysine-coated glass coverslips for electrophysiological recordings.
(§2) Whole cell recordings were performed as previously described. A Nikon Eclipse Ti inverted microscope equipped with Hoffman optics and epifluorescence filters was used to visualize individual cells. Recordings were performed at room temperature (22-24° C.) using glass electrodes made from thin wall borosilicate glass (3-5 MΩ). For electrophysiological recordings of inward Ca^2+ currents, outward K^+ currents were eliminated by equimolar substitution of K^+ with Cs^+ in the pipette solution, whereas inward Na^+ currents were eliminated by the use of TEA ions in the external solution, which are unable to go through voltage-gated Na^+ channels. The pipette solution consisted of (in mM) CsCl (120), MgCl2(2), HEPES (10), EGTA (10), ATP (1), and GTP (0.1), pH 7.4 with CsOH. The composition of the normal external saline used for measurements of Ca^2+ currents was (in mM): tetraethylammonium chloride (TEACl, 145), CaCl2 (10), MgCl2(1), HEPES (10), and glucose (5), pH 7.4 adjusted with CsOH. Ca^2+ currents were generated by applying a 200-500 ms-depolarizing step to various potentials from a holding potential of −100 mV. The external solution used to measure Na^+ currents contained (in mM) NaCl (145), KCl (5.3), CaCl2 (0.5), MgCl2 (5.7), HEPES (13), and glucose (5), pH 7.4 adjusted with KOH. The composition of the CsCl-pipette solution used to record Na^+ currents was the same describe above. Na^+ currents were generated by applying a 20 ms-depolarizing step to various potentials from a holding potential of −100 mV. To assess drug-evoked changes on specific ionic conductances, current amplitudes were expressed as current densities as previously reported. To assess current densities, cell size was normalized by dividing current amplitudes by cell capacitance. Cell capacitance was determined by integrating the transient current evoked by a 10-mV voltage step from a holding potential of −60 mV.
A MULTICLAMP 700A amplifier and PCLAMP software (Axon Instruments) was used to deliver voltage commands and to perform data acquisition and analysis. Pipette offset, whole cell capacitance, and series resistance were compensated automatically with the MultiClamp 700B Commander. Only cells with stable seals and series resistance (≤10 MΩ) were analyzed. Sampling rates were between 5 and 10 kHz. Leak currents were subtracted online using a P/4 protocol. […]

[1] = system: differentiated ND7/23 cells; experiment: Intracellular calcium signals in differentiated ND7/23 cells stimulated with KCl or ionomycin; type: cell-based, mouse neuroblastoma and rat dorsal root ganglion cells; details: 10 μM, control cells
Description: FIGS. 14A-C. Effect of RHB121 on the intracellular calcium signals generated in differentiated ND7/23 cells following stimulation with 30 mM extracellular K+ ions or the calcium ionophore ionomycin (10 μM). FIG. 14A. […] FIG. 14B. […] FIG. 14C. Relative changes in the intracellular calcium signal generated in differentiated ND7/23 cells by 30 mM KCl or Ionomycin (10 μM) in control or RHB121-treated cells. Control groups were arbitrarily assigned a 100% intracellular calcium signal.
To assess the effect of RHB121 on intracellular calcium signals, differentiated ND7/23 cells with a high potassium concentration (30 mM KCl) were simulated. The effect of the calcium ionophore Ionomycin, which also can increase intracellular calcium by a different mechanism, independently of T-type Ca^2+ channel activation, was also tested. Stimulation of differentiated ND7/23 with 30 mM KCl external solution caused a small increase in the intracellular calcium signal (FIG. 14A).

human Cav3.2 = target: T1, human Cav3.2 (Homo sapiens, UniProt O95180); experiment: Whole-cell patch clamp of T-type Ca2+ currents in Cav3.2-stable transfected HEK 293 cells; type: cell-based; details: 50 μM, HEK 293-Cav3.2 cells
T1 construct: host or cells: HEK 293
T1 sequence (O95180 whole entry): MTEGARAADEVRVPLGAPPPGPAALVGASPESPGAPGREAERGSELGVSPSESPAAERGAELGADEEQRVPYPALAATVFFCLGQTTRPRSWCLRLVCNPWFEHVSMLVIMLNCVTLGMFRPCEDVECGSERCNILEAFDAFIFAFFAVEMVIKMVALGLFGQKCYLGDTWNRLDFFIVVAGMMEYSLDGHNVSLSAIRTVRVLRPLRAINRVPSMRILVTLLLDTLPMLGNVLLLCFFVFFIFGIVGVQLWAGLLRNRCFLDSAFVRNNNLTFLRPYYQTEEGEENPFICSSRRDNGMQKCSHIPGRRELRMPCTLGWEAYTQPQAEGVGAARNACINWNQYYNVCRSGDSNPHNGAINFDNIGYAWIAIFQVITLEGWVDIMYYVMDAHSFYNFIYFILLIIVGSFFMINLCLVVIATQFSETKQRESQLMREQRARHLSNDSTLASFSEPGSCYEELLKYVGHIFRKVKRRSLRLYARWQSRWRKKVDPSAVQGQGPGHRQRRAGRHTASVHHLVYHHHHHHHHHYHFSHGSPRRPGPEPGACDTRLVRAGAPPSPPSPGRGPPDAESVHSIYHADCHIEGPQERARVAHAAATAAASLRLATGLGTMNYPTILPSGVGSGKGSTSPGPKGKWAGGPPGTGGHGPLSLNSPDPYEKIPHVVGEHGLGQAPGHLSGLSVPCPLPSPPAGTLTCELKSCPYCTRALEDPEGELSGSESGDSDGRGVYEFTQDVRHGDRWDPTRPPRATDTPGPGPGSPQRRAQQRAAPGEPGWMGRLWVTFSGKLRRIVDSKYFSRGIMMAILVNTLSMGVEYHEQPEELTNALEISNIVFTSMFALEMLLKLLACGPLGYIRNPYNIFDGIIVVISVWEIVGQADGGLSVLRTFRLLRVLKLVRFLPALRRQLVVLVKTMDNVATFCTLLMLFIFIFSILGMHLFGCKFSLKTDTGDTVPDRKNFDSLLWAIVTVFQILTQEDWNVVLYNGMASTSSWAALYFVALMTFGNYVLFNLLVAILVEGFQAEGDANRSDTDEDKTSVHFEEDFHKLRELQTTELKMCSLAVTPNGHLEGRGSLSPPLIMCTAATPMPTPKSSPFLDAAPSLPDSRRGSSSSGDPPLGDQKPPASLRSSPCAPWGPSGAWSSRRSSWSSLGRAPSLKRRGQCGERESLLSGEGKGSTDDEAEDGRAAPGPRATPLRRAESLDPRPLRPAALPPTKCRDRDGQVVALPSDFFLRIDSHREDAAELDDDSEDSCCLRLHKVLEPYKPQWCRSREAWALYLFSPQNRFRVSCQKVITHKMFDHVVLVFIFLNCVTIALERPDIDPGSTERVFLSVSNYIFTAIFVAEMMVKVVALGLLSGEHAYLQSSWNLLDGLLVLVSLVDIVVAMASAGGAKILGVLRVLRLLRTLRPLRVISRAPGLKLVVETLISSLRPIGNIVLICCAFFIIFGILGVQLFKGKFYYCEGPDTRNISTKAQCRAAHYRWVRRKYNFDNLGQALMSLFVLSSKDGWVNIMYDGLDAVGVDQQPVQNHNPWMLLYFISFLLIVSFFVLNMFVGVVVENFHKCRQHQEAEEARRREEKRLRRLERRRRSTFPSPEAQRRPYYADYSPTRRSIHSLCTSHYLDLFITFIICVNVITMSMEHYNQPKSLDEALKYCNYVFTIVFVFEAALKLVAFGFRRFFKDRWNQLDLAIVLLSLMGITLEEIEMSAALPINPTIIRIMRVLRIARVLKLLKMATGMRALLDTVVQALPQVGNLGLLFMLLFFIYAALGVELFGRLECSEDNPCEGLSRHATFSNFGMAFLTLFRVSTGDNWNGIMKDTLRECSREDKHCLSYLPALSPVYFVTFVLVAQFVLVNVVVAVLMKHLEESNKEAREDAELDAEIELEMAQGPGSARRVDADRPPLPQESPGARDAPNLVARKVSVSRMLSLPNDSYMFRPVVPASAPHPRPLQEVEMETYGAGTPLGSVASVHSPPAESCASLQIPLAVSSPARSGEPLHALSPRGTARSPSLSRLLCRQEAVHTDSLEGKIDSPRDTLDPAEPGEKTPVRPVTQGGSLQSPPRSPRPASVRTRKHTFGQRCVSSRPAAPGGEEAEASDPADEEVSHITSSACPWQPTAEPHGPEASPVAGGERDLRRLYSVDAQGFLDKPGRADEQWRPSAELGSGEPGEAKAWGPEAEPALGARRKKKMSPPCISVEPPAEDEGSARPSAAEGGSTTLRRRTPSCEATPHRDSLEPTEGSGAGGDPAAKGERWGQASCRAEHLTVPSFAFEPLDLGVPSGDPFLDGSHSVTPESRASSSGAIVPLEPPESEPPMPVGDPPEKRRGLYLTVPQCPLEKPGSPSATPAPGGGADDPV
Description: Certain exemplary embodiments have undergone target identification studies to discover a better officious T-type calcium blocker. The fourteen trifluoromethylated N-benzamide enaminone compounds were synthesized, purified, and structure confirmed using gas chromatography/mass spectroscopy, nuclear magnetic resonance, and elemental analysis. Preliminary in vitro whole cell patch clamp experiments were performed to assess the inhibitory effects of several target analogs on voltage-activated calcium currents in human embryonic kidney (HEK-293) cells. Cav3.2 transfected HEK 293 cells were treated with 50 μM of test compounds and compared to the control group (none pretreated HEK 293 cells).
as §1
as §2, with “To assess current densities, cell size was normalized by dividing current amplitudes by cell capacitance. Cell capacitance was determined by integrating the transient current evoked by a 10-mV voltage step from a holding potential of −60 mV.” left out

[2] = system: voltage-activated Na^+ channels; experiment: Whole-cell recording of Na+ currents in differentiated ND7/23 cells; type: cell-based, mouse neuroblastoma and rat dorsal root ganglion cells; details: 50 μM
Description: as §1
Whole cell recordings were performed as previously described. A Nikon Eclipse Ti inverted microscope equipped with Hoffman optics and epifluorescence filters was used to visualize individual cells. Recordings were performed at room temperature (22-24° C.) using glass electrodes made from thin wall borosilicate glass (3-5 MΩ). For electrophysiological recordings of inward Ca^2+ currents, outward K^+ currents were eliminated by equimolar substitution of K^+ with Cs^+ in the pipette solution, whereas inward Na^+ currents were eliminated by the use of TEA ions in the external solution, which are unable to go through voltage-gated Na^+ channels. […] To assess drug-evoked changes on specific ionic conductances, current amplitudes were expressed as current densities as previously reported. […] Cell capacitance was determined by integrating the transient current evoked by a 10-mV voltage step from a holding potential of −60 mV.
A MULTICLAMP 700A amplifier and PCLAMP software (Axon Instruments) was used to deliver voltage commands and to perform data acquisition and analysis. […] Only cells with stable seals and series resistance (≤10 MΩ) were analyzed. […]

| SMILES | Effect on T-type Ca2+ current density (T-type Ca^2+ channels) | Effect on Na+ current density [2] | other results |
| --- | --- | --- | --- |
| CC(C)C1CC(=O)C=C(NC(=O)c2ccc(C(F)(F)F)cc2)C1 (stereo not drawn) [IAC41, N-(5-isopropyl-3-oxocyclohex-1-en-1-yl)-4-(trifluoromethyl) benzamide] | None of the tested compounds has any effect; also recorded: no effect on Ca^2+ current densities | – | – |
| C[C@H](CCC(=O)O)C[C@H](C)C[C@H](C)C(=O)/C=C(\O)[C@H](C)C[C@H](C)C/C=C/[C@@H](C)[C@@H](O)[C@@H](C)[C@@H](O)C[C@@H]1CC[C@@](C)([C@H]2CC[C@@](C)([C@@H](C)O)O2)O1 [Ionomycin, reference compound] | – | – | Change in intracellular calcium signal on stimulation [1]: significant increase |
| CC1CC(=O)C=C(NC(=O)c2ccccc2F)C1 (stereo not drawn) [IAB67, 2-fluoro-N-(5-methyl-3-oxocyclohex-1-en-1-yl) benzamide] | None of the tested compounds has any effect | – | Effect on T-type Ca2+ current density (T-type Ca^2+ channels; listed as IAB65): no effect on Ca^2+ current densities |
| CC1CC(=O)C=C(NC(=O)c2cccc(OC(F)(F)F)c2)C1 (stereo not drawn) [ABA58] | – | – | Effect on whole cell capacitance (human Cav3.2): no significant changes; also recorded: no effect on cell capacitance |
| CC1CC(=O)C=C(NC(=O)c2ccccc2C(F)(F)F)C1 (stereo not drawn) [IAA61, N-(5-methyl-3-oxocyclohex-1-en-1-yl)-2-(trifluoromethyl) benzamide] | no effect | no noticeable effect | – |
| CC1CC(=O)C=C(NC(=O)c2cccc(C(F)(F)F)c2)C1 (stereo not drawn) [IAB15, N-(5-methyl-3-oxocyclohex-1-en-1-yl)-3-(trifluoromethyl) benzamide] | significant reduction | no noticeable effect; also recorded: no effect on the Na^+ current densities | – |
